Results from patent publication US20060083754A1, “Pharmaceutical combinations comprising corticoids and immunosuppressants for treating corticoid- and/or calcineurin inhibitors-resistant diseases” (priority 2003, published 2006).

Legend:
[1] = system: human peripheral blood mononuclear cells (PBMC); assay: T-cell proliferation assay (BrdU ELISA), PBMC stimulated with anti-CD3 mAb + anti-CD28 mAb; format: cell-based; settings: anti-CD3 mAb (0.1 μg/ml)+anti-CD28 mAb (1 μg/ml); for inhibition at 0.03 µM: Homo sapiens, PBMC
[2] = system: human peripheral blood mononuclear cells (PBMC); assay: T-cell proliferation assay (BrdU ELISA), PBMC stimulated with SEB; format: cell-based; settings: SEB (0.1 μg/ml), ASM 30 nM; for inhibition at 0.03 µM: Homo sapiens, PBMC
[3] = Example 1, 200000 cells/well, HC 10 μM, ASM 30 nM, BETA 300 nM
[4] = Example 2, 100000 cells/well, HC 10 μM, ASM 30 nM, BETA 300 nM
[5] = Example 3, 50000 cells/well, HC 10 μM, ASM 30 nM, BETA 300 nM
[6] = Example 6, 200000 cells/well, DEX 300 nM, ASM 30 nM, BETA 300 nM
[7] = Example 7, 100000 cells/well, DEX 300 nM, ASM 30 nM, BETA 300 nM
[8] = Example 8, 50000 cells/well, DEX 300 nM, ASM 30 nM, BETA 300 nM
[9] = Example 11, 100000 cells/well, DEX 300 nM, ASM 30 nM
[10] = Example 4, 200000 cells/well, HC 10 μM, BETA 300 nM
[11] = Example 5, 100000 cells/well, HC 10 μM, BETA 300 nM
[12] = Example 9, 200000 cells/well, DEX 300 nM, BETA 300 nM
[13] = Example 10, 100000 cells/well, DEX 300 nM, BETA 300 nM
[14] = Example 12, 100000 cells/well, DEX 300 nM
[15] = Example 13, 200000 cells/well, HC 10 μM, FK 30 nM, BETA 300 nM
[16] = Example 14, 100000 cells/well, HC 10 μM, FK 30 nM, BETA 300 nM
[17] = Example 15, 200000 cells/well, DEX 300 nM, FK 30 nM, BETA 300 nM
[18] = Example 16, 100000 cells/well, DEX 300 nM, FK 30 nM, BETA 300 nM
[19] = Example 17, 50000 cells/well, DEX 300 nM, FK 30 nM, BETA 300 nM
[20] = Example 18, 100000 cells/well, DEX 300 nM, FK 30 nM

## CC[C@@H]1/C=C(\C)C[C@H](C)C[C@H](OC)[C@H]2O[C@@](O)(C(=O)C(=O)N3CCCC[C@H]3C(=O)O[C@H](/C(C)=C/[C@@H]3CC[C@H](Cl)[C@H](OC)C3)[C@H](C)[C@@H](O)CC1=O)[C@H](C)C[C@@H]2OC [ASM, 33-epi-33-chloro-FR 520]
[1]; [3]
  Normalized OD (% STIM-C): 93.9 % STIM-C
  OD: 0.721
  inhibition at 0.03 µM: 6.7%
[1]; [4]
  Normalized OD (% STIM-C): 85.1 % STIM-C
  OD: 0.776
  inhibition at 0.03 µM: < 17%
[1]; [5]
  Normalized OD (% STIM-C): 113.2 % STIM-C
  OD: 0.994
  inhibition at 0.03 µM: -14.3%
[1]; [6]
  Normalized OD (% STIM-C): 98.0 % STIM-C
  OD: 0.772
[1]; [7]
  Normalized OD (% STIM-C): 87.4 % STIM-C
  OD: 0.734
  inhibition at 0.03 µM: < 25%
[1]; [8]
  Normalized OD (% STIM-C): 86.2 % STIM-C
  OD: 0.908
  inhibition at 0.03 µM: < 26%
[1]; [9]
  Normalized OD (% STIM-C): 79.1 % STIM-C
  OD: 0.918
  inhibition at 0.03 µM: < 25%
[2]; [10]
  Normalized OD (% STIM-C): 95.8 % STIM-C
  OD: 1.015
[2]; [11]
  Normalized OD (% STIM-C): 78.1 % STIM-C
  OD: 0.665
  inhibition at 0.03 µM: < 24%
[2]; [12]
  Normalized OD (% STIM-C): 83.1 % STIM-C
  OD: 0.752
  inhibition at 0.03 µM: < 19%
[2]; [13]
  Normalized OD (% STIM-C): 67.3 % STIM-C
  OD: 0.660
  inhibition at 0.03 µM: < 34%
[2]; [14]
  Normalized OD (% STIM-C): 77.5 % STIM-C
  OD: 1.013
  inhibition at 0.03 µM: < 24%

## C=CC[C@@H]1/C=C(\C)C[C@H](C)C[C@H](OC)[C@H]2O[C@@](O)(C(=O)C(=O)N3CCCC[C@H]3C(=O)O[C@H](/C(C)=C/[C@@H]3CC[C@@H](O)[C@H](OC)C3)[C@H](C)[C@@H](O)CC1=O)[C@H](C)C[C@@H]2OC [FK, tacrolimus]
[1]; [15]
  Normalized OD (% STIM-C): 119.9 % STIM-C
  OD: 0.921
  inhibition at 0.03 µM: -21.9%
[1]; [16]
  Normalized OD (% STIM-C): 72.6 % STIM-C
  OD: 0.662
  inhibition at 0.03 µM: < 31%
[1]; [17]
  Normalized OD (% STIM-C): 100.9 % STIM-C
  OD: 0.795
[1]; [18]
  Normalized OD (% STIM-C): 96.3 % STIM-C
  OD: 0.809
[1]; [19]
  Normalized OD (% STIM-C): 79.6 % STIM-C
  OD: 0.838
  inhibition at 0.03 µM: < 26%
[1]; [20]
  Normalized OD (% STIM-C): 78.0 % STIM-C
  OD: 0.905
  inhibition at 0.03 µM: < 25%
